# Experimental data as given in article PMC11249646, “Small-Molecule Disruptors of the Interaction between Calcium- and Integrin-Binding Protein 1 and Integrin αIIbβ3 as Novel Antiplatelet Agents” (ACS Pharmacology & Translational Science, 2024).
# Target: T1, CIB1 and αIIb interaction (CIB1-GST : F-αIIb peptide) (Homo sapiens, UniProt Q99828)
# T1 construct: made in house; host or cells: BL-21 plus RIL cells (E. coli)
# T1 sequence (Q99828 1-191): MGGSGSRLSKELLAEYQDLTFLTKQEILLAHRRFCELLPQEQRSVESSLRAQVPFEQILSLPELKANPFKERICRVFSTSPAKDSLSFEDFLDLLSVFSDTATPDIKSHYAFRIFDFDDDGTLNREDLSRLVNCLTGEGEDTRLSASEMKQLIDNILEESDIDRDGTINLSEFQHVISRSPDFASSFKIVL
# Assay: FP assay, 1536-well qHTS format (primary and confirmatory screen)
# Type: binding
# Conditions: not given
row,Compound,Efficacy (%)
1,Oc1cccc2cccnc12 [NCGC00090708-05],-29

# Same assay, conditions: IC50 [μM]
row,Compound,IC50 [µM]
1,Oc1cccc2cccnc12 [NCGC00090708-05],117
2,S=P(N1CC1)(N1CC1)N1CC1 [NCGC00095042-06],126

# Same assay, conditions: qHTS FP screen hits, Table S2; negative = inhibition
row,Efficacy (%),Compound
1,-43,O=C(O)c1cc(/N=N/c2ccc(S(=O)(=O)Nc3ccccn3)cc2)ccc1O [NCGC00090903-11]

# Same assay, conditions: qHTS FP screen hits, Table S2; one class per curve where COUNT > 1; negative sign = inhibitory curve
row,Curve Class,Compound
1,-2.2,O=C(O)c1cc(/N=N/c2ccc(S(=O)(=O)Nc3ccccn3)cc2)ccc1O [NCGC00090903-11]

# Same assay, conditions: qHTS FP screen hits, Table S2; read-out: IC50
row,IC50 [µM],Compound
1,25.1,O=C(O)c1cc(/N=N/c2ccc(S(=O)(=O)Nc3ccccn3)cc2)ccc1O [NCGC00090903-11]

# Same assay, conditions: qHTS primary screen hits, Table S2; negative = inhibition
row,Compound,Efficacy (%)
1,Nc1ccccc1N [NCGC00090885-03],-77
2,CCCCCCCCCCCC[N+](C)(C)CCOc1ccccc1.[Br-] [NCGC00091010-03],-55
3,CCCCCCCCCCCCCCCC[n+]1ccccc1.[Br-] [NCGC00091023-06],-31
4,Cc1cc2nc3c(=O)[nH]c(=O)nc-3n(C[C@H](O)[C@H](O)[C@H](O)CO)c2cc1C [NCGC00091288-05],-134
5,CC[n+]1c(-c2ccccc2)c2cc(N)ccc2c2ccc(N)cc21.[Br-] [NCGC00091387-08],-61
6,CCOC(=O)c1c(NC(=O)CN2CCCCC2)sc2c1CCN(C(=O)OCC)C2.O=C(O)C(F)(F)F [NCGC00092717-02],-31
7,C[C@H](O)C(=O)C1=Nc2c(nc(N)[nH]c2=O)NC1 [NCGC00094391-03],-40
8,Oc1c(Br)cc(Br)c2cccnc12 [NCGC00094815-05],-41
9,S=P(N1CC1)(N1CC1)N1CC1 [NCGC00095042-06],-44

# Results, then the molecule that gave them:
row,Efficacy (%),Compound
1,-38,Cc1ccc(N)cc1O [NCGC00090702-02]
2,-29,CC/C(=C(/CC)c1ccc(O)cc1)c1ccc(O)cc1 [NCGC00090749-11]
3,-74,COc1cc([C@H]2Oc3cc([C@H]4Oc5cc(O)cc(O)c5C(=O)[C@@H]4O)ccc3O[C@@H]2CO)ccc1O [NCGC00091057-06]
4,-60,CN(C)c1ccc(C(=C2C=CC(=[N+](C)C)C=C2)c2ccc(N(C)C)cc2)cc1.[Cl-] [NCGC00091112-09]
5,-33,Nc1cccc2c(N)cccc12 [NCGC00091284-03]
6,-86,CC(=O)[C@]1(O)Cc2c(O)c3c(c(O)c2[C@@H](O[C@H]2C[C@H](N)[C@H](O)[C@H](C)O2)C1)C(=O)c1ccccc1C3=O [NCGC00093976-06]
7,-33,Nc1ccc(-c2nc3ccc(-c4nc5cc(N)ccc5[nH]4)cc3[nH]2)cc1 [NCGC00094031-06]

# Same assay, conditions: qHTS primary screen hits, Table S2; negative sign = inhibitory curve
row,Compound,Curve Class
1,CCCCCCCCCCCC[N+](C)(C)CCOc1ccccc1.[Br-] [NCGC00091010-03],-3
2,CCOC(=O)c1c(NC(=O)CN2CCCCC2)sc2c1CCN(C(=O)OCC)C2.O=C(O)C(F)(F)F [NCGC00092717-02],-2.4
3,C[C@H](O)C(=O)C1=Nc2c(nc(N)[nH]c2=O)NC1 [NCGC00094391-03],-2.2
4,S=P(N1CC1)(N1CC1)N1CC1 [NCGC00095042-06],-2.2

# Second part, the molecule after the results:
row,Curve Class,Compound
1,-2.2,Cc1ccc(N)cc1O [NCGC00090702-02]
2,-2.2,COc1cc([C@H]2Oc3cc([C@H]4Oc5cc(O)cc(O)c5C(=O)[C@@H]4O)ccc3O[C@@H]2CO)ccc1O [NCGC00091057-06]
3,-2.4,CN(C)c1ccc(C(=C2C=CC(=[N+](C)C)C=C2)c2ccc(N(C)C)cc2)cc1.[Cl-] [NCGC00091112-09]

# Same assay, conditions: qHTS primary screen hits, Table S2; negative sign = inhibitory curve; several classes where COUNT > 1
row,Compound,Curve Class
1,CCCCCCCCCCCCCCCC[n+]1ccccc1.[Br-] [NCGC00091023-06],-2.4
2,CC[n+]1c(-c2ccccc2)c2cc(N)ccc2c2ccc(N)cc21.[Br-] [NCGC00091387-08],-2.4
3,Oc1c(Br)cc(Br)c2cccnc12 [NCGC00094815-05],-2.2

# More lines, now with the values ahead:
row,Curve Class,Compound
1,-2.4,CC/C(=C(/CC)c1ccc(O)cc1)c1ccc(O)cc1 [NCGC00090749-11]
2,-2.2,Nc1ccc(-c2nc3ccc(-c4nc5cc(N)ccc5[nH]4)cc3[nH]2)cc1 [NCGC00094031-06]

# Same assay, conditions: qHTS primary screen hits, Table S2; read-out: IC50
row,Compound,IC50 [µM]
1,Nc1ccccc1N [NCGC00090885-03],113
2,CCCCCCCCCCCC[N+](C)(C)CCOc1ccccc1.[Br-] [NCGC00091010-03],89.1
3,CCCCCCCCCCCCCCCC[n+]1ccccc1.[Br-] [NCGC00091023-06],89.1
4,Cc1cc2nc3c(=O)[nH]c(=O)nc-3n(C[C@H](O)[C@H](O)[C@H](O)CO)c2cc1C [NCGC00091288-05],4
5,CC[n+]1c(-c2ccccc2)c2cc(N)ccc2c2ccc(N)cc21.[Br-] [NCGC00091387-08],56.2
6,CCOC(=O)c1c(NC(=O)CN2CCCCC2)sc2c1CCN(C(=O)OCC)C2.O=C(O)C(F)(F)F [NCGC00092717-02],89.1
7,C[C@H](O)C(=O)C1=Nc2c(nc(N)[nH]c2=O)NC1 [NCGC00094391-03],35.5

# Continued, values first:
row,IC50 [µM],Compound
1,126,Cc1ccc(N)cc1O [NCGC00090702-02]
2,42.9,CC/C(=C(/CC)c1ccc(O)cc1)c1ccc(O)cc1 [NCGC00090749-11]
3,28.5,COc1cc([C@H]2Oc3cc([C@H]4Oc5cc(O)cc(O)c5C(=O)[C@@H]4O)ccc3O[C@@H]2CO)ccc1O [NCGC00091057-06]
4,56.2,CN(C)c1ccc(C(=C2C=CC(=[N+](C)C)C=C2)c2ccc(N(C)C)cc2)cc1.[Cl-] [NCGC00091112-09]
5,113,Nc1cccc2c(N)cccc12 [NCGC00091284-03]
6,19.1,CC(=O)[C@]1(O)Cc2c(O)c3c(c(O)c2[C@@H](O[C@H]2C[C@H](N)[C@H](O)[C@H](C)O2)C1)C(=O)c1ccccc1C3=O [NCGC00093976-06]
7,39.8,Nc1ccc(-c2nc3ccc(-c4nc5cc(N)ccc5[nH]4)cc3[nH]2)cc1 [NCGC00094031-06]

# Same assay, conditions: qHTS primary screen of LOPAC/NPACT libraries; negative = inhibition
row,Efficacy (%),Compound
1,-19,O=C(N[C@@H](Cc1ccccc1)C(=O)CCl)OCc1ccccc1 [NCGC00093742-04]
2,-28,C[C@@]1(C2CCCC2)Cc2cc(OCC(=O)O)c(Cl)c(Cl)c2C1=O [NCGC00094034-06]
3,-13,N[C@@H](CCC(=O)N[C@H](CSN=O)C(=O)NCC(=O)O)C(=O)O [NCGC00094150-03]
4,-19,C=C1C(=O)O[C@@H]2[C@H]3O[C@]3(C)CC/C=C(/C)CC[C@@H]12 [NCGC00094250-05]
5,-18,N#CC(=C(\N)Sc1ccccc1N)/C(C#N)=C(/N)Sc1ccccc1N [NCGC00094462-03]

# Same assay, conditions: qHTS primary screen of LOPAC/NPACT libraries; negative sign = inhibitory curve
row,Curve Class,Compound
1,-1.2,O=C(N[C@@H](Cc1ccccc1)C(=O)CCl)OCc1ccccc1 [NCGC00093742-04]
2,-2.2,C[C@@]1(C2CCCC2)Cc2cc(OCC(=O)O)c(Cl)c(Cl)c2C1=O [NCGC00094034-06]
3,-1.2,N[C@@H](CCC(=O)N[C@H](CSN=O)C(=O)NCC(=O)O)C(=O)O [NCGC00094150-03]
4,-1.2,Oc1cc(O)cc(/C=C/c2ccc(O)c(O)c2)c1 [NCGC00094226-07]
5,-1.2,C=C1C(=O)O[C@@H]2[C@H]3O[C@]3(C)CC/C=C(/C)CC[C@@H]12 [NCGC00094250-05]
6,-3,N#CC(=C(\N)Sc1ccccc1N)/C(C#N)=C(/N)Sc1ccccc1N [NCGC00094462-03]

# Same assay, conditions: qHTS primary screen of LOPAC/NPACT libraries; read-out: IC50
row,IC50 [µM],Compound
1,10,O=C(N[C@@H](Cc1ccccc1)C(=O)CCl)OCc1ccccc1 [NCGC00093742-04]
2,25.1,C[C@@]1(C2CCCC2)Cc2cc(OCC(=O)O)c(Cl)c(Cl)c2C1=O [NCGC00094034-06]
3,12.6,N[C@@H](CCC(=O)N[C@H](CSN=O)C(=O)NCC(=O)O)C(=O)O [NCGC00094150-03]
4,3.2,Oc1cc(O)cc(/C=C/c2ccc(O)c(O)c2)c1 [NCGC00094226-07]
5,10,C=C1C(=O)O[C@@H]2[C@H]3O[C@]3(C)CC/C=C(/C)CC[C@@H]12 [NCGC00094250-05]
6,20,N#CC(=C(\N)Sc1ccccc1N)/C(C#N)=C(/N)Sc1ccccc1N [NCGC00094462-03]
